US6743440B1, “Polycyclic quinone and ionophore composition for the synergistic reduction of methane formation in ruminant animals” (Arkion Life Sciences LLC, priority 1999, dated 2004)
Marks after values point to notes of the source that are not given here.

Test system: rumen fluid
Assay: in vitro batch culture ruminal fermentation
Format: cell-based, steer
Conditions: for Hydrogen / Methane / NH3—N / TVFA (total volatile fatty acids) / Total Gas / VFA C2 (acetate) / VFA C3 (propionate) / VFA C4 (butyrate) / VFA C5 (valerate) / VFA Ci4 (isobutyrate) / VFA Ci5 (isovalerate): high sulfur diet (1.09% S), 24 h, MoO4 25 ppm, M 5 ppm, M + AQ 5 + 10 ppm; for decrease of methane production compared to the control diet: dose effect experiment
[1] = AQ 10 ppm, Ionophores 5 ppm, AQ plus Ionophore 10 + 5 ppm
[2] = intermediate and high levels of 9,10 AQ, P<0.05

SMILES	Methane Concentration [1]	Hydrogen (AQ 10 ppm)	Methane (AQ 10 ppm)	NH3—N (AQ 10 ppm)	TVFA (total volatile fatty acids) (AQ 10 ppm)	Total Gas (AQ 10 ppm)	VFA C2 (acetate) (AQ 10 ppm)	VFA C3 (propionate) (AQ 10 ppm)	VFA C4 (butyrate) (AQ 10 ppm)	VFA C5 (valerate) (AQ 10 ppm)	VFA Ci4 (isobutyrate) (AQ 10 ppm)	VFA Ci5 (isovalerate) (AQ 10 ppm)	further results
CC[C@@]1([C@H]2O[C@H]([C@H]3O[C@@](O)(CO)[C@H](C)C[C@@H]3C)C[C@H]2C)CC[C@H]([C@@]2(C)CC[C@]3(C[C@H](O)[C@@H](C)[C@@H]([C@H](C)[C@H](OC)[C@@H](C)C(=O)[O-])O3)O2)O1.[Na+] [M, monensin sodium]	299 Umole/24 hr. fermentation	4.17^ab μMoles/24 h fermentation	299^b μMoles/24 h fermentation	36.0^a mg/dl	117.5^c mM	85.2^c mL/24 h fermentation	52.4^c moles/100 mol	28.0^b moles/100 mol	13.6^d moles/100 mol	3.0^c moles/100 mol	1.3^ab moles/100 mol	1.7^b moles/100 mol	Methane concentration, Percent of Control (AQ 10 ppm, Ionophores 5 ppm, AQ plus Ionophore 10 + 5 ppm, control = 403): 74%
[O]=[Mo](=[O])([O-])[O-] [MoO4]		4.13^ab μMoles/24 h fermentation	451^a μMoles/24 h fermentation	37.9^a mg/dl	123.9^b mM	94.1^ab mL/24 h fermentation	55.2^b moles/100 mol	24.2^c moles/100 mol	15.1^c moles/100 mol	2.7^d moles/100 mol	1.2^b moles/100 mol	1.6^b moles/100 mol	
O=C1c2ccccc2C(=O)c2ccccc21 [AQ, 9,10-anthraquinone]	265 Umole/24 hr. fermentation	4.27^ab μMoles/24 h fermentation	265^b μMoles/24 h fermentation	37.2^a mg/dl	118.0^c mM	89.2^cb mL/24 h fermentation	48.4^d moles/100 mol	28.1^b moles/100 mol	17.3^a moles/100 mol	3.3^b moles/100 mol	1.2^ab moles/100 mol	1.7^b moles/100 mol	Total VFA relative to the control and untreated high sulfur diet (9,10 AQ dose effect experiment): numerically but not statistically decreased; hydrogen concentration (9,10 AQ dose effect experiment): unaffected; decrease of methane production compared to the control diet (10 ppm 9,10 AQ): 21%; decrease of methane production compared to the control diet (25 ppm 9,10 AQ): 41%; activity at 10 ppm (AQ 10 ppm, Ionophores 5 ppm, AQ plus Ionophore 10 + 5 ppm, control = 403, read-out: Methane concentration, Percent of Control): 66%; ammonia-N (highest level of 9,10 AQ, P<0.05): decreased; percentages of C3, C4 and C5 (intermediate and high levels of 9,10 AQ): increased; molar proportion of C2 [2]: decreased; total gas produced [2]: decreased; effect on fermentation end-products compared to the untreated diets (low level of 9,10 AQ (1 ppm)): no effect
